According to publication PMC7766225, “Structure-Based Discovery and Bioactivity Evaluation of Novel Aurora-A Kinase Inhibitors as Anticancer Agents via Docking-Based Comparative Intermolecular Contacts Analysis (dbCICA)” (Molecules, 2020):
“And” between values parts separate entries of the source, which are not always exact repeats. Equal entries are not always repeated. Where two headings read alike, the source gives them in different places. Values belong to the compound of their own block, whether it stands above or below them.

How the values were obtained:
[1] = target: T1, Aurora-A kinase (Homo sapiens, UniProt O14965); conditions: Table S1, ChEMBL, cited from earlier work
T1 construct: purchased Invitrogen (Carlsbad, CA, USA)
T1 sequence (O14965 1-403): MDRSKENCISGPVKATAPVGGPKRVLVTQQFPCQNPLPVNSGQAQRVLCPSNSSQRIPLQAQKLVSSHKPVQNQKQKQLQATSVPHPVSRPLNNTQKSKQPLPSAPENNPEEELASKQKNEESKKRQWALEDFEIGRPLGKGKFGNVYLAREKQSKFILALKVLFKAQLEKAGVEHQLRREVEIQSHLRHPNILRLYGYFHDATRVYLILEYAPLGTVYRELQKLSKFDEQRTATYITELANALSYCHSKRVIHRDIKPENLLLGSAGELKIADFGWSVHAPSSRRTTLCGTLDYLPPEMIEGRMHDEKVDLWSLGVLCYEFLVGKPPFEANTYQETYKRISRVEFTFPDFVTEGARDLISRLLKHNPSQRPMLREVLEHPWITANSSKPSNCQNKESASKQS

[2] = system: MDA-MB-231 cells; assay: MTT cytotoxicity/anti-proliferation assay, MDA-MB-231; assay type: cell-based, human; conditions: Homo sapiens; for IC50: MDA-MB-231, 72 h; for inhibition at 25 µM: MDA-MB-231, 25 µM; for inhibition at 25 µM / inhibition at 50 µM: 72 h; for inhibition at 50 µM: MDA-MB-231, 50 µM
Protocol: (§1) The human cell-lines triple negative breast adenocarcinoma MDA-MB-231, Pancreas adenocarcinoma PANC1, ductal breast carcinoma T-47D and fibroblasts were preserved and expanded in DMEM medium, while the prostate adenocarcinoma PC-3 cells were cultured in RPMI-1640 growth medium. All growth media were supplemented with 10% heat-inactivated fetal bovine serum (FBS). Cells were maintained under standard culture conditions at 37 °C, 5% CO2 in a humidified incubator. At 80% confluency, cells were washed with 5 mL phosphate buffer saline (1X PBS), then incubated for 4 min with 2–3 mL Trypsin-EDTA 0.25% in order to obtain suspended cells and collect them in a known volume of fresh media for cell count. Cells were counted using conventional hemocytometer and trypan blue dye method.
(§2) The five potent hits that have shown anti-Aurora-A Kinase inhibition percentages above 51% at 10 μM upon conducting the kinase enzyme Inhibition assay (Table 5) were further validated using MTT cytotoxicity Assay. This assay includes 3-(4,5-Dimethylthiazol-2-yl)-2,5-diphenyl tetrazolium bromide (MTT) dye, which is a yellowish tetrazole reduced by viable cells into formazan purple color, which detects the normal mitochondrial role in viable cells. In 96-well coated flat bottom microplates, 100 μL cell suspension of PANC1 or T-47D cells were seeded at a density of 7000 cell/well, and 6000 cell/well for MDA-MB-231, PC-3, or fibroblasts, and incubated under the same conditions at 37 °C. After 24 h, each well was treated with the intended drug concentration diluted in 200 μL fresh media after removal of the old 100-μL media. After 72 h incubation, drug-containing media was aspirated and on each well 100 μL phenol-red free media and 15-μL MTT solution (5 mg/mL (wt/vol) PBS). After 3 h of dark incubation at 37 °C, MTT and media were carefully withdrawn from each well, and 200 μL/well DMSO were added. Colorimetric absorbance (OD) was measured at 570 nm wavelength using 96-well plate reader (Tecan-Sunrise, Männedorf, Switzerland).
(§3) The five compounds were prepared in a stock concentrate of 10 mM using cell culture grade DMSO to be utilized in MTT assay. The cytotoxicity of each compound was initially screened on cancer cell-lines at two concentrations: 50 μM and 25 μM in duplicates. […] The safety index for the compounds with specified IC50 values was evaluated via determining their IC50 values against normal Fibroblast cells. It is noteworthy to mention that DMSO concentration was constant on all the wells (i.e., (0.5% v/v or 1 μL/200 μL) per well), for the treated and the control ones. IC50 values were calculated using nonlinear regression of the dose–response curves using GraphPad Prism software 7.03.

[3] = system: PANC1 cells; assay: MTT cytotoxicity/anti-proliferation assay, PANC1; assay type: cell-based, human; conditions: Homo sapiens; for IC50: PANC-1, 72 h, Panc1, 72 h; for inhibition at 25 µM / inhibition at 50 µM: PANC-1, 72 h; for inhibition at 25 µM: Panc1, 25 µM; for inhibition at 50 µM: Panc1, 50 µM
Protocol: as §1, §2, §3

[4] = target: T1, Aurora-A kinase; assay: FRET-based Z'-LYTE kinase enzyme inhibition assay; assay type: biochemical; conditions: for inhibition at 10 µM: read-out: % Inhibition at 10 µM; for IC50: nonlinear regression; for Hill Slope: dose-response curve, GraphPad Prism
Protocol: This bioassay was conducted using Z′-LYTE® kinase assay (Invitrogen, Carlsbad, CA, USA) [68, 69]. This biochemical assay depends on fluorescence emission as detection method utilizing a synthetic fluorescence resonance energy transfer (FRET) peptide with two fluorophores: coumarin that work as donor and fluorescein as acceptor [69]. Each hit or compound was dissolved in DMSO to form 10 mM stock solution. Hits were screened at 10 μM concentration. The bioassay was performed in black 384-well plate. For each assay, 100 nL of tested compound stock solution (10 mM) was mixed with 2.4 μL kinase buffer, 5 μL (peptide substrate/Aurora-A Kinase) mixture, and 2.5 μL ATP solution.
The tests were conducted in duplicates.

[5] = system: T-47D cells; assay: MTT cytotoxicity/anti-proliferation assay, T-47D; assay type: cell-based; conditions: Homo sapiens, T47D, 72 h
Protocol: as §1, §2, §3

[6] = system: Fibroblasts; assay: MTT cytotoxicity assay on normal fibroblasts (safety index); assay type: cell-based; conditions: Homo sapiens, Fibroblast, 72 h
Protocol: as §1, §2, §3

[7] = system: PC-3 cells; assay: MTT cytotoxicity/anti-proliferation assay, PC-3; assay type: cell-based; conditions: Homo sapiens
Protocol: as §1, §2, §3

[8] = ref Pollard and Mortimore, 2009

Structure (SMILES): CCN(CCO)CCCOc1cc2ncnc(Nc3cc(CC(=O)Nc4cccc(F)c4F)[nH]n3)c2cc1OC [Compound 19]
Ki ([1]; ref Mortlock, et al., 2007): 360 nM

Structure (SMILES): COc1cc2c(Nc3cc(CC(=O)Nc4cccc(F)c4F)[nH]n3)ncnc2cc1OCCCN(CCO)CC(C)C [Compound 21]
Ki ([1]; ref Mortlock, et al., 2007): 18 nM

Structure (SMILES): CCCN(CCO)CCCOc1ccc2c(Nc3cc(CC(=O)Nc4cccc(F)c4F)[nH]n3)ncnc2c1 [Compound 23]
Ki ([1]; ref Mortlock, et al., 2007): 350 nM

Structure (SMILES): CCCN(CCO)CCCOc1ccc2c(Nc3cc(CC(=O)Nc4cccc(F)c4)[nH]n3)ncnc2c1 [Compound 25]
Ki ([1]; ref Mortlock, et al., 2007): 980 nM

Structure (SMILES): Cc1cc(Nc2nc(-c3ccccc3)nc3ccccc23)n[nH]1 [Compound 27]
Ki [1, 8]: 58 nM

Structure (SMILES): CC(=O)Nc1ccc(Sc2nc(Nc3cc(C)[nH]n3)c3ccccc3n2)cc1 [Compound 28]
Ki [1, 8]: 4 nM

Structure (SMILES): Cc1cc(Nc2nc(-c3ccncc3)nc3ccccc23)n[nH]1 [Compound 29]
Ki ([1]; ref Bebbington, et al., 2009): 81 nM

Structure (SMILES): CC(=O)Nc1ccc(Sc2nccc(Nc3cc(C)[nH]n3)n2)cc1 [Compound 49]
Ki ([1]; ref Bebbington, et al., 2009): 86 nM

Structure (SMILES): CC(=O)Nc1ccc(Sc2nc(C)cc(Nc3cc(C)[nH]n3)n2)cc1 [Compound 50]
Ki ([1]; ref Bebbington, et al., 2009): 18 nM

Structure (SMILES): CC(=O)Nc1ccc(Sc2nc(Nc3cc(C)[nH]n3)cc(-c3ccccc3)n2)cc1 [Compound 51]
Ki ([1]; ref Bebbington, et al., 2009): 2.4 nM

Structure (SMILES): CCC(=O)Nc1ccc(Sc2nc(Nc3cc(C)[nH]n3)cc(C(C)(C)C)n2)cc1 [Compound 54]
Ki ([1]; ref Bebbington, et al., 2009): 10 nM

Structure (SMILES): CCC(=O)Nc1ccc(Sc2nc(Nc3cc(C)[nH]n3)cc(-c3cccnc3)n2)cc1 [Compound 55]
Ki ([1]; ref Bebbington, et al., 2009): 3.9 nM

Structure (SMILES): CCC(=O)Nc1ccc(Sc2nc(Nc3cc(C)[nH]n3)cc(N3CCC3)n2)cc1 [Compound 56]
Ki ([1]; ref Bebbington, et al., 2009): 2.4 nM

Structure (SMILES): CCC(=O)Nc1ccc(Sc2nc(Nc3cc(C)[nH]n3)cc(N3CCCCC3)n2)cc1 [Compound 57]
Ki ([1]; ref Bebbington, et al., 2009): 1.6 nM

Structure (SMILES): CCC(=O)Nc1ccc(Sc2nc(Nc3cc(C)[nH]n3)cc(N3CCOCC3)n2)cc1 [Compound 58]
Ki ([1]; ref Bebbington, et al., 2009): 1.7 nM

Structure (SMILES): CCC(=O)Nc1ccc(Sc2nc(Nc3cc(C)[nH]n3)cc(N3CCNCC3)n2)cc1 [Compound 59]
Ki ([1]; ref Bebbington, et al., 2009): 3.7 nM

Structure (SMILES): CCC(=O)Nc1ccc(Sc2nc(Nc3cc(C)[nH]n3)cc(N3CCN(C)CC3)n2)cc1 [Compound 60]
Ki ([1]; ref Bebbington, et al., 2009): 1.6 nM

Structure (SMILES): CCC(=O)Nc1ccc(Sc2nc(Nc3cc(C)[nH]n3)cc(N3CCN(C(C)(C)C)CC3)n2)cc1 [Compound 61]
Ki ([1]; ref Bebbington, et al., 2009): 1.3 nM

Structure (SMILES): Cc1nc(C)c(-c2ccnc(Nc3ccc(N(C)C)cc3)n2)s1 [Compound 65]
Ki ([1]; ref Wang, et al., 2010): 6.9 nM

Structure (SMILES): CNc1ccc(Nc2nccc(-c3sc(C)nc3C)n2)cc1 [Compound 66]
Ki ([1]; ref Wang, et al., 2010): 18 nM

Structure (SMILES): Cc1nc(C)c(-c2ccnc(Nc3ccc(N)cc3)n2)s1 [Compound 67]
Ki ([1]; ref Wang, et al., 2010): 31 nM

Structure (SMILES): COc1cc(Nc2nccc(-c3sc(C)nc3C)n2)cc(OC)c1OC [Compound 68]
Ki ([1]; ref Wang, et al., 2010): 0.4 nM

Structure (SMILES): CNc1nc(C)c(-c2ccnc(Nc3cc(OC)c(OC)c(OC)c3)n2)s1 [Compound 69]
Ki ([1]; ref Wang, et al., 2010): 1 nM

Structure (SMILES): CCNc1nc(C)c(-c2ccnc(Nc3cc(OC)c(OC)c(OC)c3)n2)s1 [Compound 70]
Ki ([1]; ref Wang, et al., 2010): 3 nM

inhibition at 10 µM ([4]; 10 µM, duplicates, Z'-LYTE): 75%
IC50 ([4]; 0.1–100 μM, duplicates, read-out: IC50): 2600 nM and 2610 nM
Hill Slope [4]: 1.77
Structure (SMILES): Cc1cc(O)c(/N=N/c2ccc(C(=O)O)cc2)cc1C [Hit 88]
IC50 [2]: > 50000 nM
inhibition at 25 µM [2]: 21.1 ± 0.05%
inhibition at 50 µM [2]: 31.3 ± 0.06%
IC50 [3]: > 50000 nM
inhibition at 25 µM [3]: 11.3 ± 0.01%
inhibition at 50 µM [3]: 15.1 ± 0.006%
inhibition at 25 µM [5]: 26.5 ± 0.01%
inhibition at 50 µM [5]: 34.9 ± 0.013%
IC50 [5]: > 50000 nM

inhibition at 10 µM ([4]; 10 µM, duplicates, Z'-LYTE): 55%
Structure (SMILES): COc1cc(/C=N/c2ccc3ccccc3c2)ccc1O [Hit 112]
IC50 [2]: 17900 ± 1400 nM
inhibition at 25 µM [2]: 63.3 ± 0.021%
inhibition at 50 µM [2]: 74.7 ± 0.012%
IC50 [3]: > 50000 nM
inhibition at 25 µM [3]: 16 ± 0.02%
inhibition at 50 µM [3]: 22.5 ± 0.012%
inhibition at 25 µM ([6]; 25 µM): 53.9 ± 0.018%
inhibition at 50 µM ([6]; 50 µM): 54.3 ± 0.003%
IC50 [6]: 15100 ± 3000 nM
IC50 ([7]; PC-3, 72 h): > 50000 nM
inhibition at 25 µM ([7]; PC-3, 25 µM, 72 h): 19.2%
inhibition at 50 µM ([7]; PC-3, 50 µM, 72 h): 32.7%
inhibition at 25 µM [5]: 34.7 ± 0.012%
inhibition at 50 µM [5]: 48.11 ± 0.003%
IC50 [5]: > 50000 nM

IC50 ([4]; IC50, 0.1–100 μM, duplicates): 5890 nM and 5900 nM
Hill Slope [4]: 7.6
inhibition at 10 µM [4]: 86%
Structure (SMILES): CCCC1N(Cc2ccc(OC)cc2)CCN1Cc1ccc(OC)cc1 [Hit 130]
IC50 [2]: > 50000 nM
inhibition at 25 µM [2]: 22.9 ± 0.02%
inhibition at 50 µM [2]: 45.5 ± 0.05%
IC50 [3]: > 50000 nM
inhibition at 25 µM [3]: 20.3 ± 0.012%
inhibition at 50 µM [3]: 34.9 ± 0.017%
inhibition at 25 µM [5]: 25.5 ± 0.016%
inhibition at 50 µM [5]: 31.3 ± 0.008%
IC50 [5]: > 50000 nM

inhibition at 10 µM ([4]; 10 µM, duplicates, Z'-LYTE): 51%
Structure (SMILES): O=C(O)c1ccc(Nc2ccnc3cc(Cl)ccc23)cc1O [Hit 141]
IC50 [2]: > 50000 nM
inhibition at 25 µM [2]: 2.9 ± 0.03%
inhibition at 50 µM [2]: 11.1 ± 0.05%
IC50 [3]: > 50000 nM
inhibition at 25 µM [3]: 11.4 ± 0.003%
inhibition at 50 µM [3]: 15.7 ± 0.02%
inhibition at 25 µM [5]: 21.11 ± 0.01%
inhibition at 50 µM [5]: 25.04 ± 0.02%
IC50 [5]: > 50000 nM
